Reference: PubChem BioAssay AID248 (DTP/NCI, 2004)
“And” between values parts separate entries of the source, which are not always exact repeats. Equal values may be shown once. Inconclusive results and toxic doses are left out. Rule as the data show it: active = T/C of 150% or more; inactive = T/C below 125%.

Test system: L1210 leukemia ip in BDF1 mice, survival T/C
Experiment: NCI In Vivo Anticancer Drug Screen. Data for tumor model L1210 Leukemia (intraperitoneal) in B6D2F1 (BDF1) mice
Settings: endpoint: mean survival time, higher = longer survival
Outline: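 Tumor was transplanted into mice, which were then dosed with test compound or vehicle alone. Survival was recorded for each group, and the treated figure was expressed relative to the control figure.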

[1] = dose: 100.0 mg/kg/injection, schedule: Q01DX009 (ip), vehicle: Klucel (hydroxypropylcellulose) (HPC)
[2] = dose: 100.0 mg/kg/injection, schedule: Q04DX003 (ip), vehicle: Klucel (hydroxypropylcellulose) (HPC)
[3] = dose: 100.0 mg/kg/injection, schedule: Q04DX003 (ip), vehicle: saline with Tween-80
[4] = dose: 200.0 mg/kg/injection, schedule: Q01DX009 (ip), vehicle: Klucel (hydroxypropylcellulose) (HPC)
[5] = dose: 200.0 mg/kg/injection, schedule: Q01DX009 (ip), vehicle: saline with Tween-80
[6] = dose: 200.0 mg/kg/injection, schedule: Q04DX003 (ip), vehicle: Klucel (hydroxypropylcellulose) (HPC)
[7] = dose: 200.0 mg/kg/injection, schedule: Q04DX003 (ip), vehicle: saline with Tween-80
[8] = dose: 400.0 mg/kg/injection, schedule: Q01DX009 (ip), vehicle: Klucel (hydroxypropylcellulose) (HPC)
[9] = dose: 400.0 mg/kg/injection, schedule: Q04DX003 (ip), vehicle: Klucel (hydroxypropylcellulose) (HPC)
[10] = dose: 400.0 mg/kg/injection, schedule: Q04DX003 (ip), vehicle: saline with Tween-80
[11] = dose: 100.0 mg/kg/injection, schedule: Q04DX003 (ip), vehicle: saline
[12] = dose: 200.0 mg/kg/injection, schedule: Q04DX003 (ip), vehicle: saline
[13] = dose: 400.0 mg/kg/injection, schedule: Q04DX003 (ip), vehicle: saline
[14] = dose: 50.0 mg/kg/injection, schedule: Q01DX001 (ip), vehicle: carboxymethylcellulose (CMC)
[15] = dose: 100.0 mg/kg/injection, schedule: Q01DX001 (ip), vehicle: carboxymethylcellulose (CMC)
[16] = dose: 200.0 mg/kg/injection, schedule: Q01DX001 (ip), vehicle: carboxymethylcellulose (CMC)
[17] = dose: 400.0 mg/kg/injection, schedule: Q01DX001 (ip), vehicle: carboxymethylcellulose (CMC)
[18] = dose: 100.0 mg/kg/injection, schedule: Q04DX002 (ip), vehicle: Klucel (hydroxypropylcellulose) (HPC)
[19] = dose: 200.0 mg/kg/injection, schedule: Q04DX002 (ip), vehicle: Klucel (hydroxypropylcellulose) (HPC)
[20] = dose: 400.0 mg/kg/injection, schedule: Q04DX002 (ip), vehicle: Klucel (hydroxypropylcellulose) (HPC)
[21] = dose: 100.0 mg/kg/injection, schedule: Q01DX009 (ip), vehicle: saline with Tween-80

Measured: T/C

N#CC1c2ccccc2C=CN1C(=O)c1ccccc1 (configuration not stated)
inactive: dose: 50.0 mg/kg/injection, schedule: Q01DX009 (ip), vehicle: saline with Tween-80 95 % of control | [1] 92 % of control | [2] 94 % of control | [3] 97 % of control | [4] 97 % of control | [5] 93 % of control | [6] 98 % of control | [7] 94 % of control | [8] 92 % of control | dose: 400.0 mg/kg/injection, schedule: Q01DX009 (ip), vehicle: saline with Tween-80 95 % of control | [9] 94 % of control | [10] 96 % of control

O=C(O)c1cc(=O)n(CCCn2c(=O)cc(C(=O)O)[nH]c2=O)c(=O)[nH]1
inactive: dose: 100.0 mg/kg/injection, schedule: Q04DX002 (ip), vehicle: saline with Tween-80 93 % of control | dose: 200.0 mg/kg/injection, schedule: Q04DX002 (ip), vehicle: saline with Tween-80 101 % of control | dose: 400.0 mg/kg/injection, schedule: Q04DX002 (ip), vehicle: saline with Tween-80 89 % of control

CCCc1nc(N)[nH]c(=O)c1CCCCc1ccccc1
inactive: [11] 96 % of control | [12] 110 % of control | [13] 100 % of control

O=c1[nH]cnc2c1ncn2-c1ccc(N(CCO)CCO)cc1
inactive: [14] 98 % of control | [15] 115 % of control | [16] 95 % of control | [17] 98 % of control

Cc1ccc(S(=O)(=O)OC2C(=O)C(C)(C)CCC2(C)C)cc1 (configuration not stated)
inactive: [18] 100 % of control | [19] 100 % of control | [20] 97 % of control

Cc1c2c(cc3c1CCCC3)CCCC2
inactive: dose: 100.0 mg/kg/injection, schedule: Q01DX001 (ip), vehicle: saline with Tween-80 93 % of control | dose: 200.0 mg/kg/injection, schedule: Q01DX001 (ip), vehicle: saline with Tween-80 93 % of control | dose: 400.0 mg/kg/injection, schedule: Q01DX001 (ip), vehicle: saline with Tween-80 92 % of control

COc1ccc(OC(=O)Nc2cccc(Cl)c2)cc1
inactive: [1] 94 % of control | [4] 100 % of control | [8] 100 % of control

CCOC(=O)C(C)(C)CN(CC(C)(C)C(=O)OCC)c1ccccc1
inactive: [3] 106 % of control | [7] 106 % of control | [10] 104 % of control

O=C(CNC(=O)c1ccccc1)Nc1ccccc1
inactive: dose: 100.0 mg/kg/injection, schedule: Q01DX001 (ip), vehicle: saline 105 % of control | dose: 200.0 mg/kg/injection, schedule: Q01DX001 (ip), vehicle: saline 97 % of control | dose: 400.0 mg/kg/injection, schedule: Q01DX001 (ip), vehicle: saline 97 % of control

O=C(NCCCC(NC(=O)OCc1ccccc1)C(=O)NCCCNCCCCNCCCNC(=O)C(CCCNC(=O)OCc1ccccc1)NC(=O)OCc1ccccc1)OCc1ccccc1 (configuration not stated)
inactive: dose: 10.0 mg/kg/injection, schedule: Q01DX Z (ip), vehicle: saline 90 % of control

O=[N+]([O-])c1cc(S(=O)(=O)c2ccc(O)c([N+](=O)[O-])c2)ccc1O
inactive: dose: 25.0 mg/kg/injection, schedule: Q04DX002 (ip), vehicle: saline 98 % of control | dose: 50.0 mg/kg/injection, schedule: Q04DX002 (ip), vehicle: saline 98 % of control | dose: 100.0 mg/kg/injection, schedule: Q04DX002 (ip), vehicle: saline 98 % of control and 104 % of control

O=C(c1ccccc1)c1ccc(Cl)c(Cl)c1
inactive: [2] 98 % of control | [6] 89 % of control | [9] 93 % of control

Cc1cccc2cc[nH]c12
inactive: dose: 50.0 mg/kg/injection, schedule: Q01DX001 (ip), vehicle: other 115 % of control | dose: 100.0 mg/kg/injection, schedule: Q01DX001 (ip), vehicle: other 87 % of control | dose: 200.0 mg/kg/injection, schedule: Q01DX001 (ip), vehicle: other 102 % of control | dose: 400.0 mg/kg/injection, schedule: Q01DX001 (ip), vehicle: other 96 % of control

O=C(CC(C(=O)c1ccccc1)N1CCN(Cc2ccccc2)CC1)c1ccccc1 (configuration not stated)
inactive: [14] 92 % of control | [15] 94 % of control | [16] 92 % of control | [17] 97 % of control

O=C(Nc1ccc(C2=NCCCN2)cc1)N1CCN(C(=O)Nc2ccc(C3=NCCCN3)cc2)CC1
inactive: dose: 10.0 mg/kg/injection, schedule: Q01DX Z (ip), vehicle: water 106 % of control | dose: 20.0 mg/kg/injection, schedule: Q01DX Z (ip), vehicle: water 120 % of control

Cc1cc(NC(=O)CCc2ccc(N3C(N)=NC(N)=NC3(C)C)cc2)ccc1S(=O)(=O)F (tested in a mixture with another compound)
inactive: dose: 100.0 mg/kg/injection, schedule: Q01DX001 (ip), vehicle: Klucel (hydroxypropylcellulose) (HPC) 90 % of control | dose: 200.0 mg/kg/injection, schedule: Q01DX001 (ip), vehicle: Klucel (hydroxypropylcellulose) (HPC) 90 % of control | dose: 400.0 mg/kg/injection, schedule: Q01DX001 (ip), vehicle: Klucel (hydroxypropylcellulose) (HPC) 92 % of control

COC1=[C]([Hg][Br])C(OC)OC1OC (configuration not stated)
inactive: dose: 5.0 mg/kg/injection, schedule: Q01DX009 (ip), vehicle: saline with Tween-80 89 % of control | dose: 10.0 mg/kg/injection, schedule: Q01DX009 (ip), vehicle: saline with Tween-80 95 % of control

O=C(CCl)Nc1cc(Cl)ccc1N1CCCC1
inactive: dose: 12.5 mg/kg/injection, schedule: Q01DX009 (ip), vehicle: acetone 100 % of control | dose: 25.0 mg/kg/injection, schedule: Q01DX009 (ip), vehicle: acetone 90 % of control | dose: 50.0 mg/kg/injection, schedule: Q01DX009 (ip), vehicle: acetone 90 % of control

O=C(O)c1cccc(CBr)c1CBr
inactive: dose: 6.25 mg/kg/injection, schedule: Q01DX001 (ip), vehicle: saline with Tween-80 97 % of control | dose: 6.25 mg/kg/injection, schedule: Q01DX009 (ip), vehicle: saline with Tween-80 93 % of control | dose: 12.5 mg/kg/injection, schedule: Q01DX001 (ip), vehicle: saline with Tween-80 96 % of control | dose: 12.5 mg/kg/injection, schedule: Q01DX009 (ip), vehicle: saline with Tween-80 96 % of control | dose: 25.0 mg/kg/injection, schedule: Q01DX001 (ip), vehicle: saline with Tween-80 100 % of control

COc1ccc2nc3cc(Cl)ccc3c(Nc3ccc(O)cc3)c2c1
inactive: [21] 91 % of control | [5] 86 % of control

CC1(C)OC2C(CO)OC(OCc3ccccc3)C2O1 (configuration not stated)
inactive: dose: 50.0 mg/kg/injection, schedule: Q04DX003 (ip), vehicle: saline 100 % of control | [11] 91 % of control | [12] 105 % of control | [13] 88 % of control

Cc1nonc1NC(=O)OCc1ccccc1
inactive: [18] 97 % of control | [19] 93 % of control | [20] 104 % of control

O/N=C\c1ccccc1Cl
inactive: [21] 100 % of control | [2] 100 % of control | [5] 105 % of control | [6] 100 % of control | [9] 96 % of control

COc1ccc(C)cc1OC(CCC(C)C)C(C)=O (configuration not stated)
inactive: dose: 75.0 mg/kg/injection, schedule: Q01DX001 (ip), vehicle: carboxymethylcellulose (CMC) 93 % of control | dose: 150.0 mg/kg/injection, schedule: Q01DX001 (ip), vehicle: carboxymethylcellulose (CMC) 96 % of control | dose: 300.0 mg/kg/injection, schedule: Q01DX001 (ip), vehicle: carboxymethylcellulose (CMC) 90 % of control

CCCCCCCC(=O)N(CCO)CCO
inactive: dose: 100.0 mg/kg/injection, schedule: Q04DX002 (ip), vehicle: other 96 % of control | dose: 200.0 mg/kg/injection, schedule: Q04DX002 (ip), vehicle: other 101 % of control | dose: 400.0 mg/kg/injection, schedule: Q04DX002 (ip), vehicle: other 96 % of control
